Source: paper PMC4322365, “A Ligand-observed Mass Spectrometry Approach Integrated into the Fragment Based Lead Discovery Pipeline” (Scientific Reports, 2015)
“And” between values parts separate entries of the source, which are not always exact repeats. Equal values may be shown once.

What was measured:
HCV RNA polymerase NS5B = target: T1, HCV RNA polymerase NS5B (Hepatitis C virus genotype 1b, UniProt P26663); experiment: Ligand-observed MS secondary screen of 7 subdivided fragment cocktails; format: binding; conditions: 7 cocktails of 50 or 84 fragments; two replicates separated by a slash; S/N > 10 positive; ND: not detected by MS analysis
T1 construct: NS5B with a C-terminal 10-His tag was expressed in E. coli; 10-His (C); made in house; host or cells: E. coli
T1 sequence (P26663 2420-3010): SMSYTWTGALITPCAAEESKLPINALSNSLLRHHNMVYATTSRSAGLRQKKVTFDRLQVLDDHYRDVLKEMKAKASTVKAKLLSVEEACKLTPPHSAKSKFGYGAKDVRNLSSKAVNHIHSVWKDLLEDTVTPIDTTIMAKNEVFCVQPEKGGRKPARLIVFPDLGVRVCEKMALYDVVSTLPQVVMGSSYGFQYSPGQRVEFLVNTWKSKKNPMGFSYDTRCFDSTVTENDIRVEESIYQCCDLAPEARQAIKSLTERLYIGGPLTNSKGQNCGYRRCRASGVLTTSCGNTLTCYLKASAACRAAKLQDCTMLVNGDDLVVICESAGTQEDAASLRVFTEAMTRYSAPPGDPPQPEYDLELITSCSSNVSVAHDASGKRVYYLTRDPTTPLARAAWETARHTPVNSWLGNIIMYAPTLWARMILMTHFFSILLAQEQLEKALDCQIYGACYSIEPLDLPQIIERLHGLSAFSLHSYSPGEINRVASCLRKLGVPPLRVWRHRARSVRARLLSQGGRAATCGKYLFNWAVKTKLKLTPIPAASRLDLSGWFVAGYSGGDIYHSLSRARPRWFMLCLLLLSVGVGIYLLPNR
Protocol: To reduce possible false-positives from the primary screen, the library was divided to 7 cocktails among which six consist of 50 fragments and the last one of 84 fragments. Individual cocktails were incubated with NS5B protein prior to protein complex isolation and ligand-observed MS analysis, resulting in a total of 12 positive hits after screening the seven cocktails (Figure 1C). […] Thus the confidence in hit identification was enhanced by selecting hits repetitively found from the two screens against cocktails of different diversity. It is noteworthy that the preliminary hits missed in the secondary screen might be due to either nonspecific binding or co-operative binding that only occurred when the entire library was incubated with the target. Apart from the 12 hits, 25 fragments with S/N < 10 from the secondary screen were regarded non-binders and discarded.
In the primary screening, a mixture of 384 fragments (each at a final concentration of 25 μM) and NS5B at 50 μM was prepared in the binding buffer of 20 mM MES (pH 6.5), 300 mM NaCl and 10% glycerol, and incubated for 40 min at 25°C. All fragments of the library were either purchased from Sigma or synthesized in our laboratory, and their structural diversity was summarized in Figure S4. The mixture was then filtered through an ultrafiltration membrane (50 KD MW cut-off) by centrifugation at 13000 g for 10 min at […]. The protein complexes bound with different fragments were washed twice with 10 mM ammonium acetate (pH 6.5) followed by centrifugation to remove the unbound fragments. The resulting solution of the complexes was transferred to a new centrifugal tube, and the ligands were dissociated from NS5B with 90% methanol in deionized water. The released ligands were then separated from the denatured protein by centrifugation at 13000 g for 10 min at 20°C. The supernatant containing the ligands was evaporated by a speed vacuum, reconstituted in 80% methanol, and analyzed by LC/MS. The protein-free control was prepared by using the binding buffer substitute for NS5B during incubation and it underwent the same process as the NS5B incubated sample. In the secondary screen, 384 fragments were divided into 7 cocktails, each consisting of 50 fragments except for the seventh cocktail of 84 fragments. Each cocktail was then incubated with NS5B in the binding buffer at the same final concentration as in the primary screen. […] Ultrafiltration and complex dissociation were performed as described earlier to obtain fragment ligands. Samples were all prepared in duplicate and analyzed separately.
Aliquots of reconstituted ultrafiltrates were analyzed on a Waters Synapt G1 high-dfinition mass spectrometer (Milford, MA) equipped with a Waters Acquity UPLC system. UPLC separation was carried out on a Waters Acquity BEH C18 column (2.1 mm × 50 mm, 1.7 μm) at a flow rate of 200 μL/min, with the mobile phases of water/0.1% formic acid (A) and acetonitrile/0.1% formic acid (B). In the primary screen, the LC gradient was as follows: 0–15 min, 2–50% B; 15–17 min, 50%–90% B; 17–20 min, 90% B. In the secondary screen and the validation assay, the first fraction of gradient (2–50% B) was shortened to 6 min. The regular ESI ion source operated in both positive- and negative-ion modes. Mass spectra were acquired within a mass range from 100 to 800 m/z, with capillary voltage 3.0 kV in the positive mode and 2.6 kV in the negative mode, sample cone voltage 54 V (positive mode) and 45 V (negative mode), extraction cone voltage 4.7 V (positive mode) and 4.0 V (negative mode), desolvation temperature 350°C, source temperature 100°C, and desolvation gas flow 500 L/h. External calibration with a solution of sodium formate achieved mass accuracy within 10 ppm. LC/MS chromatogram extraction and peak area calculation for specific fragments were performed by use of MassLynx software (v4.1, Waters) based on accurate mass measurement of the compound with a tolerance of 0.01 Da. […]

NS5B = target: T2, NS5B (Hepatitis C virus genotype 1b, UniProt P26663); experiment: SPR analysis (Biacore T200, immobilized NS5B); format: binding; conditions: for SPR Corr. response (RU): corrected response above 5 RU indicates positive binding; for SPR binding: threshold 5 RU
T2 construct: NS5B with a C-terminal 10-His tag was expressed in E. coli; 10-His (C); made in house; host or cells: E. coli
T2 sequence (P26663 2420-3010): as above
Protocol: In order to determine the dissociation constant of each fragment ligand, we prepared calibration curves for the MS responses of ten fragments in a mixture (Figure S1) and measured the recovery rate of each fragment (Table S3), which were used to derive the actual concentrations of fragments bound to the target. Kd values were then calculated based on the measured concentrations of fragment ligands dissociated from the target (Table S3). […] Ligand efficiency (LE) values were then derived from Kd's as a measure to justify which fragments to further optimize and elaborate in the FBLD pipeline[46][47] (Figure 2A). To examine the accuracy of Kd measurement using this new approach, we first attempted to utilize ITC for binding affinity assessment. […] SPR was then implemented for Kd determination for these fragment hits. […] However, using the single point measurement method, we were still able to estimate Kd's for these fragment-target interactions to be all within the millimolar range and rank the order of their binding affinity according to corrected responses (Figure 2B). […] The overall consistency of affinity ranking and estimation between the two independent assays implied our new approach enabled reliable assessment of binding affinity, especially valuable for characterizing low-affinity fragments not amenable to conventional biophysical approaches.
The SPR experiment was performed on a Biacore T200 optical biosensor (Biacore Life Sciences, GE Healthcare). Series S sensor chips CM5, NHS, EDC, ethanolamine HCl as well as sampling vials and caps were all obtained from Biacore. A solution of 1 × PBS with 5% DMSO was used as running buffer. NS5B protein at 50 μg/ml prepared in buffer of 10 mM sodium acetate (pH 5.5) was injected for immobilization which reached a level of 8000 RU. During each binding cycle, the fragment solution was injected for 1 min at a flow rate of 30 μL/min and dissociation was monitored for 300 s. Data were collected with the biosensor instrument thermo stated to 25°C. Raw data collected on an SPR biosensor were further processed to remove systematic artifacts stemming from nonspecific binding, signal drift, and bulk refractive index changes. Solvent correction and molecular weight adjustment were also applied in this study. All data processing and analysis was performed using the Biacore T200 Evaluation Software.

| SMILES | S/N in the 2nd screen (HCV RNA polymerase NS5B) | SPR Corr. response (RU) (NS5B) | SPR binding (NS5B) |
| --- | --- | --- | --- |
| Cn1c(=O)cc(O)c2ccccc21 [Fragment 130] | 48.4 and 49.4 | 18.4 RU | – |
| Cc1cc(N)n(-c2ccccc2)n1 [Fragment 131] | 23.1 and 19.4 | 14.7 RU | – |
| N#CCc1ccc(O)cc1 [Fragment 114] | 103.0 and 91.0 | 55.6 RU | – |
| O=C(O)c1ccc(C(F)(F)F)cc1 [Fragment 204] | 22.4 and 19.8 | < 5 RU and 3.2 RU | no binding |
| Cc1nc2ccccc2nc1C [Fragment 339] | 66.2 and 62.4 | 12.2 RU | – |
| N#CC(c1ccccc1)N1CCOCC1 (stereo not drawn) [Fragment 328] | 17.4 and 16.3 | – | no binding |
| Oc1ccc(SC(F)(F)F)cc1 [Fragment 237] | 29.0 and 36.0 | 10.0 RU | – |
| Oc1ccc(F)c(Cl)c1 [Fragment 85] | 79.0 and 86.0 | 30.9 RU | – |
| Nc1ccc(C(F)(F)F)cn1 [Fragment 162] | 19.7 and 17.3 | 7.6 RU | – |
| Cc1ccc2oc(=O)ccc2c1 [Fragment 117] | 34.3 and 39.6 | 24.6 RU | – |
